Earlier results as cited in patent US20100086572A1, “RATIONAL PPI DOSAGE FORMS” (priority 2005, published 2010).
Like-named read-outs stand apart in the source and are kept apart here.

Experiments:
[1] = test system: experimentally induced colitis; conditions: in vivo
[2] = 0.5 hours

SMILES: Cc1c(OCC(F)(F)F)ccnc1C[S+]([O-])c1nc2ccccc2[nH]1 (stereo not drawn) [lansoprazole]
- formation of experimentally induced colitis [1]: inhibits the formation of experimentally induced-induced colitis
- drug degrading in aqueous solution ([2]; pH 5, 37° C.): About 49%
- drug degrading in aqueous solution ([2]; pH 6, 37° C.): ~10%
- drug degrading in aqueous solution ([2]; pH 7, 37° C.): ~2%
- drug degrading in aqueous solution ([2]; pH 8, 37° C.): ~1%
- area under the plasma concentration curve (AUC) (30 mg once a day): 1934 ng·h/mL
- area under the plasma concentration curve (AUC) (60 mg once a day): 4743 ng·h/mL
- area under the plasma concentration curve (AUC) (60 mg three times a day): 14083 ng·h/mL
- area under the plasma concentration curve (AUC) (60 mg twice a day): 8508 ng·h/mL
